# Data reported in US20230365561A1, “BETA-LACTAMASE INHIBITORS AND THEIR PREPARATION” (NINGXIA ACADEMY OF AGRICUL TURE AND FORESTRY SCIENCES, priority 2020, published 2023).
# Where a name gives a salt, the structure may show the parent alone.
# Key:
# Type in all cases: cell-based
# [1] = test system: K. pneumoniae clinical isolate (strain 3); assay: MIC by broth microdilution (alone and in combination with meropenam), strain 3; details: Klebsiella pneumoniae, compound alone, read-out: MIC, antibacterial activity of example alone
# Experimental: (§1) Compounds of the present invention alone, meropenam (MER) alone, and as a combination with test antibiotic (meropenam) were tested for antimicrobial activity by determing minimum inhibitory concentration (MIC, mg/L) using the broth microdilution method according to the guidelines of the Clinical Laboratories and Stansards Insitute (“Methods for Dilution Antimicrobial Suscetibility Tests for Bacterial that Grow Aerobiclly”, Approved standard, […]., Clinical and Laboratories Stanards Institute (CLSI) Document M7-A8, Wayne, Pa., USA, 2009). Meropenam as a test antibiotic compound was dissolved in DMSO. Meropenam was then diluted in microbial growth medium (Mueller-Hinton Broth II, cation adjusted) resulting in a final concention range of 0.125-64 mg/L in serial two-fold dilution. In all cases the filnal DMSO concentraion was less than 0.5%. Bacteria were added to 96-well microtitre plates containing the serial two-fold dilutions of the compoumds; the final cell density was appoximately 5x10^5 colony forming units/mL (CFU/mL). Plates were incubated at 37° C. for 18-24 hours and read visually. The MIC, i.e. the lowest concentration of the test compound that inhibited visible growth of the bacteria, was recorded. The same assay conditions were used when the compounds of present invention alone, and as a combination with test meropenam antibiotic compound was tested for minmum inhibitory concentration (MIC, mg/L). Whileest meropenam was serially diluted as descrribed above, a constant concentration of the present invention of 4 µg/mL was used.
# (§2) Bacterial strains that were used to evaluate the antimicrobial activity using the MIC determination included but were not limited to E. coli clinical isolate (strain 1), E. coli 8739 (strain 2), K. pneumoniae clinical isolate (strain 3), K. pneumoniae 700603 (strain 4), E. cloacae clinical isolate (strain 5), E. cloacae 700323 (strain 6), A. baumannii clinical isolate (strain 7), A. baumannii 19606 (strain 8), P. aeruginosa clinical isolate (strain 9), P. aeruginosa 9027 (strain 10).
# E. coli 8739 (strain 2) = assay: MIC by broth microdilution (alone and in combination with meropenam), strain 2; details: Escherichia coli, compound alone, read-out: MIC, antibacterial activity of example alone
# Experimental: as §1, §2
# [2] = test system: A. baumannii clinical isolate (strain 7); assay: MIC by broth microdilution (alone and in combination with meropenam), strain 7; details: Acinetobacter baumannii, compound alone, read-out: MIC, antibacterial activity of example alone
# Experimental: as §1, §2
# [3] = test system: A. baumannii 19606 (strain 8); assay: MIC by broth microdilution (alone and in combination with meropenam), strain 8; details: Acinetobacter baumannii, compound alone, read-out: MIC, antibacterial activity of example alone
# Experimental: as §1, §2
# [4] = test system: K. pneumoniae 700603 (strain 4); assay: MIC by broth microdilution (alone and in combination with meropenam), strain 4; details: Klebsiella pneumoniae, compound alone, read-out: MIC, antibacterial activity of example alone
# Experimental: as §1, §2
# [5] = test system: P. aeruginosa clinical isolate (strain 9); assay: MIC by broth microdilution (alone and in combination with meropenam), strain 9; details: Pseudomonas aeruginosa, compound alone, read-out: MIC, antibacterial activity of example alone
# Experimental: as §1, §2
# [6] = test system: E. cloacae 700323 (strain 6); assay: MIC by broth microdilution (alone and in combination with meropenam), strain 6; details: Enterobacter cloacae, compound alone, read-out: MIC, antibacterial activity of example alone
# Experimental: as §1, §2
# [7] = test system: P. aeruginosa 9027 (strain 10); assay: MIC by broth microdilution (alone and in combination with meropenam), strain 10; details: Pseudomonas aeruginosa, compound alone, read-out: MIC, antibacterial activity of example alone
# Experimental: as §1, §2
# [8] = test system: E. coli clinical isolate (strain 1); assay: MIC by broth microdilution (alone and in combination with meropenam), strain 1; details: Escherichia coli, compound alone, read-out: MIC, antibacterial activity of example alone
# Experimental: as §1, §2
# [9] = test system: E. cloacae clinical isolate (strain 5); assay: MIC by broth microdilution (alone and in combination with meropenam), strain 5; details: Enterobacter cloacae, compound alone, read-out: MIC, antibacterial activity of example alone
# Experimental: as §1, §2
SMILES,MIC [1] [µg/mL],MIC (E. coli 8739 (strain 2)) [µg/mL],MIC [2] [µg/mL],MIC [3] [µg/mL],MIC [4] [µg/mL],MIC [5] [µg/mL],MIC [6] [µg/mL],MIC [7] [µg/mL],MIC [8] [µg/mL],MIC [9] [µg/mL]
"N=C(NC(=O)c1cncnc1)[C@@H]1CC[C@@H]2CN1C(=O)N2OS(=O)(=O)O [Ex.10, Sodium (2S,5R)-7-oxo-2-(N-(pyrimidine-5-carbonyl)carbamimidoyl)-1,6-diazabicyclo[3.2.1]octan-6-yl Sulfate]",> 64,> 64,> 64,> 64,> 64,> 64,> 64,> 64,> 64,> 64
"N=C(NC(=O)c1cccnn1)[C@@H]1CC[C@@H]2CN1C(=O)N2OS(=O)(=O)O [Ex.12, (2S,5R)-7-oxo-2-(N-(pyridazine-3-carbonyl)carbamimidoyl)-1,6-diazabicyclo[3.2.1]octan-6-yl Hydrogen Sulfate]",> 64,> 64,> 64,> 64,> 64,> 64,> 64,> 64,> 64,> 64
"CC(C)(C)OC(=O)N1CCC(C(=O)NC(=N)[C@@H]2CC[C@@H]3CN2C(=O)N3OS(=O)(=O)[O-])CC1.[Na+] [Ex.14, Sodium (2S,5R)-2-(N-(1-(tert-butoxycarbonyl)piperidine-4-carbonyl)carbamimidoyl)-7-oxo-1,6-diazabicyclo[3.2.1]octan-6-yl Sulfate]",> 64,> 64,> 64,> 64,> 64,> 64,> 64,> 64,> 64,> 64
"N=C(NC(=O)c1ccc(F)cc1)[C@@H]1CC[C@@H]2CN1C(=O)N2OS(=O)(=O)O [Ex.17, (2S,5R)-2-(N-(4-fluorobenzoyl)carbamimidoyl)-7-oxo-1,6-diazabicyclo[3.2.1]octan-6-yl Hydrogen Sulfate]",> 64,> 64,> 64,> 64,> 64,> 64,> 64,> 64,> 64,> 64
"N=C(NC(=O)C1CCNCC1)[C@@H]1CC[C@@H]2CN1C(=O)N2OS(=O)(=O)[O-].[Na+] [Ex.18, Sodium (2S,5R)-7-oxo-2-(N-(piperidine-4-carbonyl)carbamimidoyl)-1,6-diazabicyclo[3.2.1]octan-6-yl Sulfate]",> 64,> 64,> 64,> 64,> 64,> 64,> 64,> 64,> 64,> 64
"N=C(NC(=O)c1nc(N)cs1)[C@@H]1CC[C@@H]2CN1C(=O)N2OS(=O)(=O)[O-].[Na+] [Ex.22, Sodium (2S,5R)-2-(N-(4-aminothiazole-2-carbonyl)carbamimidoyl)-7-oxo-1,6-diazabicyclo[3.2.1]octan-6-yl Sulfate]",> 64,> 64,> 64,> 64,> 64,> 64,> 64,> 64,> 64,> 64
"N=C(NC(=O)c1csc(C(F)(F)F)n1)[C@@H]1CC[C@@H]2CN1C(=O)N2OS(=O)(=O)[O-].[Na+] [Ex.24, Sodium (2S,5R)-7-oxo-2-(N-(2-(trifluoromethyl)thiazole-4-carbonyl)carbamimidoyl)-1,6-diazabicyclo[3.2.1]octan-6-yl Sulfate]",> 64,> 64,> 64,> 64,> 64,> 64,> 64,> 64,> 64,> 64

# Now from value to molecule:
MIC [1] [µg/mL],MIC (E. coli 8739 (strain 2)) [µg/mL],MIC [2] [µg/mL],MIC [3] [µg/mL],MIC [4] [µg/mL],MIC [5] [µg/mL],MIC [6] [µg/mL],MIC [7] [µg/mL],MIC [8] [µg/mL],MIC [9] [µg/mL],SMILES
> 64,> 64,> 64,> 64,> 64,> 64,> 64,> 64,> 64,> 64,"N=C(NC(=O)CCN)[C@@H]1CC[C@@H]2CN1C(=O)N2OS(=O)(=O)[O-].[Na+] [Ex.11, Sodium (2S,5R)-2-(N-(3-aminopropanoyl)carbamimidoyl)-7-oxo-1,6-diazabicyclo[3.2.1]octan-6-yl Sulfate]"
> 64,> 64,> 64,> 64,> 64,> 64,> 64,> 64,> 64,> 64,"N=C(NC(=O)CCc1ccccn1)[C@@H]1CC[C@@H]2CN1C(=O)N2OS(=O)(=O)[O-].[Na+] [Ex.13, Sodium (2S,5R)-7-oxo-2-(N-(3-(pyridin-2-yl)propanoyl)carbamimidoyl)-1,6-diazabicyclo[3.2.1]octan-6-yl Sulfate]"
> 64,> 64,> 64,> 64,> 64,> 64,> 64,> 64,> 64,> 64,"N=C(NC(=O)CN)[C@@H]1CC[C@@H]2CN1C(=O)N2OS(=O)(=O)[O-].[Na+] [Ex.15, Sodium (2S,5R)-2-(N-glycylcarbamimidoyl)-7-oxo-1,6-diazabicyclo[3.2.1]octan-6-yl Sulfate]"
> 64,> 64,> 64,> 64,> 64,> 64,> 64,> 64,> 64,> 64,"N=C(NC(=O)c1cscn1)[C@@H]1CC[C@@H]2CN1C(=O)N2OS(=O)(=O)[O-].[Na+] [Ex.16, Sodium (2S,5R)-7-oxo-2-(N-(thiazole-4-carbonyl)carbamimidoyl)-1,6-diazabicyclo[3.2.1]octan-6-yl Sulfate]"
> 64,> 64,> 64,> 64,> 64,> 64,> 64,> 64,> 64,> 64,"CC(=O)NCCC(=O)NC(=N)[C@@H]1CC[C@@H]2CN1C(=O)N2OS(=O)(=O)[O-].[Na+] [Ex.19, Sodium (2S,5R)-2-(N-(3-acetamidopropanoyl)carbamimidoyl)-7-oxo-1,6-diazabicyclo[3.2.1]octan-6-yl Sulfate]"
> 64,> 64,> 64,> 64,> 64,> 64,> 64,> 64,> 64,> 64,"N=C(NC(=O)c1cocn1)[C@@H]1CC[C@@H]2CN1C(=O)N2OS(=O)(=O)[O-].[Na+] [Ex.20, Sodium (2S,5R)-2-(N-(oxazole-4-carbonyl)carbamimidoyl)-7-oxo-1,6-diazabicyclo[3.2.1]octan-6-yl Sulfate]"
> 64,> 64,> 64,> 64,> 64,> 64,> 64,> 64,> 64,> 64,"N=C(NC(=O)c1cnco1)[C@@H]1CC[C@@H]2CN1C(=O)N2OS(=O)(=O)[O-].[Na+] [Ex.21, Sodium (2S,5R)-2-(N-(oxazole-5-carbonyl)carbamimidoyl)-7-oxo-1,6-diazabicyclo[3.2.1]octan-6-yl Sulfate]"
> 64,> 64,> 64,> 64,> 64,> 64,> 64,> 64,> 64,> 64,"N=C(NC(=O)c1nccs1)[C@@H]1CC[C@@H]2CN1C(=O)N2OS(=O)(=O)[O-].[Na+] [Ex.23, Sodium (2S,5R)-7-oxo-2-(N-(thiazole-2-carbonyl)carbamimidoyl)-1,6-diazabicyclo[3.2.1]octan-6-yl Sulfate]"
